# Measurements taken from US6413986B1, “[1-indanon-2-yl]methylpiperidines” (Aventis Pharmaceuticals Inc., priority 1991, dated 2002).
# Molecular target: T1, Acetylcholinesterase (Rattus norvegicus, UniProt P37136)
# T1 construct: Male Wistar rats are decapitated, brains rapidly removed, corpora striata dissected free, weighed and homogenized; from tissue; host or cells: rat brain corpora striata homogenate (male Wistar rats)
# T1 sequence (P37136 32-614): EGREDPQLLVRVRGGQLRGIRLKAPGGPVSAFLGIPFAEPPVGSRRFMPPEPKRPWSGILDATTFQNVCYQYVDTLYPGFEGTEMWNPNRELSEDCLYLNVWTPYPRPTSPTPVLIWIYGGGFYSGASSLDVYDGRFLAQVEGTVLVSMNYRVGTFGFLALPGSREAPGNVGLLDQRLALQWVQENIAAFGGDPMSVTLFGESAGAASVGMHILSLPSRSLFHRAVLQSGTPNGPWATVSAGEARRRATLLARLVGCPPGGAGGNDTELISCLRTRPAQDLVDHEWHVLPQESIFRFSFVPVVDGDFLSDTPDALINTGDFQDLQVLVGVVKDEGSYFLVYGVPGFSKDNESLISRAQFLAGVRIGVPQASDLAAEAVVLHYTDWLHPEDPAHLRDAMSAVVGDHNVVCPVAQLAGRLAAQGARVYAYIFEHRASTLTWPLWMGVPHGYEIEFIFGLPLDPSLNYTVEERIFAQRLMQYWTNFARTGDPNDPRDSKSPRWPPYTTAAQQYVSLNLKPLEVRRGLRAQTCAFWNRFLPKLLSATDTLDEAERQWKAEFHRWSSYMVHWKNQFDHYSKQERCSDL
# Test: inhibition of acetyl cholinesterase activity (acetylthiocholine/DTNB spectrophotometric assay, rat striatal homogenate)
# Assay type: biochemical, Male Wistar rats
# Conditions: rat corpora striata homogenate; preincubated for 10 minutes at 37° C.; substrate acetylthiocholine 5 mM final; DTNB 0.5 mM; 412 nm; log-probit analysis
# Method: The [1-indanon-2-yl]methylpiperidines of the present invention are useful as agents for the relief of memory dysfunction, particularly dysfunctions associated with decreased cholinergic activity such as those found in Alzheimer's disease.
# 4. A 2 mM stock solution of the test drug is made up in a suitable solvent and q.sed to volume with 0.5 mM DTNB (reagent 3). Drugs are serially diluted (1:10) such that the final concentration (in cuvette) is 10^−4M and screened for activity. If active, IC50 values are determined from the inhibitory activity of subsequent concentrations.
# Male Wistar rats are decapitated, brains rapidly removed, corpora striata dissected free, weighed and homogenized in 19 volumes (approximately 7 mg protein/ml) of 0.05 M sodium phosphate, pH 7.2 using a Potter-Elvehjem homogenizer. A 25 μl aliquot of this suspension is added to 1 ml of the vehicle or various concentrations of the test drug and preincubated for 10 minutes at 37° C.
# Enzyme activity is measured with the Beckman DU-50 spectrophotometer. This method can be used for IC50 determinations and for measuring kinetic constants.
# Reagents are added to the blank and sample cuvettes as follows:
# Blank values are determined for each run to control for non-enzymatic hydrolysis of substrate and these values are automatically subtracted by the kindata program available on kinetics soft-pac module. This program also calculates the rate of absorbance change for each cuvette.
# Substrate concentration is 10 mM diluted 1:2 in assay yielding final concentration of 5 mM. DTNB concentration is 0.5 mM final concentration
# % Inhibition=slope control-slope drug/slope control×100
# IC50 values are calculated from log-probit analysis.
row,SMILES,IC50
1,O=C(NCc1ccccc1)Oc1ccc2c(c1)C(=O)C(CC1CCN(Cc3cccc(F)c3)CC1)C2 (stereo not shown) [1-(3-Fluorobenzyl)-4-[[6-(benzylaminocarbonyloxy)-1-indanon]-2-yl]-methylpiperidine],3170 nM
2,CNC(=O)Oc1ccc2c(c1)C(=O)C(CC1CCN(Cc3cccc(F)c3)CC1)C2 (stereo not shown) [1-(3-Fluorobenzyl)-4-[[6-(methylaminocarbonyloxy)-1-indanon]-2-yl]methylpiperidine],1510 nM
3,CNC(=O)Oc1ccc2c(c1)C(=O)C(CC1CCN(Cc3ccccc3)CC1)C2 (stereo not shown) [1-Benzyl-4-[[6-methylaminocarbonyloxy)-1-indanon]-2-yl]methylpiperidine],1340 nM
4,CCCCNC(=O)Oc1ccc2c(c1)C(=O)C(CC1CCN(Cc3ccccc3)CC1)C2 (stereo not shown) [1-Benzyl-4-[[6-(butylaminocarbonyloxy)-1-indanon]-2-yl]methylpiperidine],1430 nM
